# Data published in patent US6914045B2, “Glycopeptide antibiotics” (Wyeth Holdings Corporation, priority 2001, dated 2005).
# Legend:
# Assay in all cases: in vitro antibacterial evaluation, MIC by broth dilution
# Assay type in all cases: cell-based
# Enterococcus sp. = settings: broth dilution, 18 hours at 35° C.; for MIC Enterococcus faecalis (ATCC 29212): strain ATCC 29212; for MIC Enterococcus faecalis (GC 2242): strain GC 2242; for MIC Enterococcus faecium (GC 2243): strain GC 2243; for MIC Enterococcus faecalis (GC 2691): strain GC 2691; for MIC Enterococcus faecalis (GC 3059): strain GC 3059; for MIC Enterococcus faecalis (GC 4552): strain GC 4552; for MIC Enterococcus faecalis (GC 4553): strain GC 4553; for MIC Enterococcus faecalis (GC 4554): strain GC 4554; for MIC Enterococcus faecium (GC 4556): strain GC 4556; for MIC Enterococcus faecium (GC 4557): strain GC 4557; for MIC Enterococcus avium (GC 4558): strain GC 4558; for MIC Enterococcus faecalis (GC 6189): strain GC 6189
# Method in brief: (§1)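 Test organisms, which included recent clinical isolates resistant to methicillin, penicillin and/or vancomycin, were inoculated at 5×10^5 CFU/mL into Muller-Hinton II […] containing antibiotic at 64-0.06 μg/mL. Minimum inhibitory concentrations were then read as the lowest level inhibiting growth.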
# Escherichia coli = system: Escherichia coli
# Method in brief: as §1
# Staphylococcus sp. = settings: broth dilution, 18 hours at 35° C.; for MIC Staphylococcus aureus (GC 1131): strain GC 1131
# Method in brief: as §1
# Streptococcus sp. = settings: broth dilution, 18 hours at 35° C.; for MIC Streptococcus pneumoniae (ATCC 6301): strain ATCC 6301; for MIC Streptococcus pneumoniae (GC 1894): strain GC 1894; for MIC Streptococcus pyogenes (GC 4563): strain GC 4563; for MIC Streptococcus agalactiae (GC 4564): strain GC 4564; for MIC Streptococcus pneumoniae (GC 4565): strain GC 4565
# Method in brief: as §1
smiles,measurement,setting,value
CC(c1ccccc1)C1NC(=O)CNC(=O)C(CO)NC(=O)C(C(O)C2CNC(=N)N2C2OC(CO)C(O)C(O)C2O)NC(=O)C(C(O)C2CNC(=N)N2)NC(=O)C(Cc2ccc(OC3OC(CO)C(OC4OC(CO)C(O)C5OC(c6ccc(-c7ccsc7)cc6)OC45)C(O)C3O)cc2)NC1=O (stereo not drawn) [Example 164a],MIC Enterococcus faecalis (ATCC 29212),Enterococcus sp.; inoculum 5×10^5 CFU/mL,16 mg/L
same,MIC Enterococcus faecalis (GC 2242),Enterococcus sp.; inoculum 5×10^5 CFU/mL,16 mg/L
same,MIC Enterococcus faecium (GC 2243),Enterococcus sp.; inoculum 5×10^5 CFU/mL,8 mg/L
same,MIC Enterococcus faecalis (GC 2691),Enterococcus sp.; inoculum 5×10^5 CFU/mL,16 mg/L
same,MIC Enterococcus faecalis (GC 3059),Enterococcus sp.; inoculum 5×10^5 CFU/mL,16 mg/L
same,MIC Enterococcus faecalis (GC 4552),Enterococcus sp.; inoculum 5×10^5 CFU/mL,16 mg/L
same,MIC Enterococcus faecalis (GC 4553),Enterococcus sp.; inoculum 5×10^5 CFU/mL,16 mg/L
same,MIC Enterococcus faecalis (GC 4554),Enterococcus sp.; inoculum 5×10^5 CFU/mL,16 mg/L
same,MIC Enterococcus faecium (GC 4556),Enterococcus sp.; inoculum 5×10^5 CFU/mL,16 mg/L
same,MIC Enterococcus faecium (GC 4557),Enterococcus sp.; inoculum 5×10^5 CFU/mL,4 mg/L
same,MIC Enterococcus avium (GC 4558),Enterococcus sp.; inoculum 5×10^5 CFU/mL,8 mg/L
same,MIC Enterococcus faecalis (GC 6189),Enterococcus sp.; inoculum 5×10^5 CFU/mL,16 mg/L
same,MIC Enterococcus faecalis (ATCC 29212),Enterococcus sp.,16 mg/L
same,MIC Enterococcus faecalis (GC 2242),Enterococcus sp.,16 mg/L
same,MIC Enterococcus faecium (GC 2243),Enterococcus sp.,8 mg/L
same,MIC Enterococcus faecalis (GC 2691),Enterococcus sp.,16 mg/L
same,MIC Enterococcus faecalis (GC 3059),Enterococcus sp.,16 mg/L
same,MIC Enterococcus faecalis (GC 4552),Enterococcus sp.,16 mg/L
same,MIC Enterococcus faecalis (GC 4553),Enterococcus sp.,16 mg/L
same,MIC Enterococcus faecalis (GC 4554),Enterococcus sp.,16 mg/L
same,MIC Enterococcus faecium (GC 4556),Enterococcus sp.,16 mg/L
same,MIC Enterococcus faecium (GC 4557),Enterococcus sp.,4 mg/L
same,MIC Enterococcus avium (GC 4558),Enterococcus sp.,8 mg/L
same,MIC Enterococcus faecalis (GC 6189),Enterococcus sp.,16 mg/L
same,MIC Escherichia coli (ATCC 25922),"Escherichia coli; strain ATCC 25922, 18 hours at 35° C.",32 mg/L
same,MIC Escherichia coli (GC 4559),"Escherichia coli; strain GC 4559, 18 hours at 35° C.",32 mg/L
same,MIC Escherichia coli (GC 4560),"Escherichia coli; strain GC 4560, 18 hours at 35° C.",8 mg/L
same,MIC Staphylococcus aureus (GC 1131),Staphylococcus sp.; inoculum 5×10^5 CFU/mL,8 mg/L
same,MIC Staphylococcus aureus (ATCC 29213),Staphylococcus sp.; strain ATCC 29213,8 mg/L
same,MIC Staphylococcus aureus (GC 1131),Staphylococcus sp.,8 mg/L
same,MIC Staphylococcus aureus (GC 3051),Staphylococcus sp.; strain GC 3051,8 mg/L
same,MIC Staphylococcus aureus (GC 3053),Staphylococcus sp.; strain GC 3053,8 mg/L
same,MIC Staphylococcus aureus (GC 4541),Staphylococcus sp.; strain GC 4541,8 mg/L
same,MIC Staphylococcus aureus (GC 4542),Staphylococcus sp.; strain GC 4542,16 mg/L
same,MIC Staphylococcus aureus-SMITH (GC 4543),Staphylococcus sp.; strain GC 4543,8 mg/L
same,MIC Staphylococcus aureus (GC 4544),Staphylococcus sp.; strain GC 4544,8 mg/L
same,MIC Staphylococcus aureus (GC 4545),Staphylococcus sp.; strain GC 4545,8 mg/L
same,MIC Staphylococcus haemolyticus (GC 4546),Staphylococcus sp.; strain GC 4546,4 mg/L
same,MIC Coagulase Negative Staphylococcus (GC 4547),Staphylococcus sp.; strain GC 4547,8 mg/L
same,MIC Coagulase Negative Staphylococcus (GC 4548),Staphylococcus sp.; strain GC 4548,4 mg/L
same,MIC Coagulase Negative Staphylococcus (GC 4549),Staphylococcus sp.; strain GC 4549,4 mg/L
same,MIC Coagulase Negative Staphylococcus (GC 4551),Staphylococcus sp.; strain GC 4551,8 mg/L
same,MIC Coagulase Negative Staphylococcus (GC 6257),Staphylococcus sp.; strain GC 6257,4 mg/L
same,MIC Staphylococcus aureus-SMITH (GC 4543),Staphylococcus sp.; strain SMITH GC 4543,8 mg/L
same,MIC Streptococcus pneumoniae (ATCC 6301),Streptococcus sp.; inoculum 5×10^5 CFU/mL,1 mg/L
same,MIC Streptococcus pneumoniae (GC 1894),Streptococcus sp.; inoculum 5×10^5 CFU/mL,0.25 mg/L
same,MIC Streptococcus pyogenes (GC 4563),Streptococcus sp.; inoculum 5×10^5 CFU/mL,0.5 mg/L
same,MIC Streptococcus agalactiae (GC 4564),Streptococcus sp.; inoculum 5×10^5 CFU/mL,1 mg/L
same,MIC Streptococcus pneumoniae (GC 4565),Streptococcus sp.; inoculum 5×10^5 CFU/mL,1 mg/L
same,MIC Streptococcus pneumoniae (ATCC 6301),Streptococcus sp.,1 mg/L
same,MIC Streptococcus pneumoniae (GC 1894),Streptococcus sp.,0.25 mg/L
same,MIC Streptococcus pyogenes (GC 4563),Streptococcus sp.,0.5 mg/L
same,MIC Streptococcus agalactiae (GC 4564),Streptococcus sp.,1 mg/L
same,MIC Streptococcus pneumoniae (GC 4565),Streptococcus sp.,1 mg/L
